Measured values published in US20260101897A1, “PLANT ENVIRONMENTAL STRESS TOLERANCE IMPROVEMENT AGENT AND ENVIRONMENTAL STRESS TOLERANCE IMPROVEMENT METHOD” (priority 2022, published 2026).

Experiments:
Format in all cases: in vivo
[1] = system: strawberry (wild strawberry); test: Evaluation Example 14: tolerance to freezing stress, plant mortality; details: for Environmental stress suppressing rate: freezing stress Yes
Description: EGT (Example 18, Comparative Example 60) or GB (Comparative Examples 59 and 61) was prepared so as to have the concentration shown in Table 14 below. EGT and GB were commercially available products, and pure water was used as a solvent.
5 mL of pure water was added to 9-cm petri dishes on which filter paper was placed, and 10 seeds of strawberry (wild strawberry) were seeded per dish. They were located in a growth chamber set at room temperature of 22° C., and the light period was 16 hours and the dark period was 8 hours. The light conditions were set such that the light intensity was 5000 lx in the central part under irradiation with the fluorescent lamp.
On the 15th day after seeding, pure water in the petri dish was removed, and then 5 mL of EGT or 5 mL of GB was added, and 9 days after that, freezing stress was applied by exposure to an environment of −20° C. for 20 minutes.
The surviving plants were counted 3 days after the freezing stress was applied, and the mortality rate of the plants was evaluated as an index of physiological disorder. The mortality rate and the environmental stress suppressing rate were calculated according to the following formulas.

[2] = system: Arabidopsis thaliana (Col-0); test: Evaluation Example 2: tolerance to drying stress, plant mortality
Description: A commercially available EGT was used, and pure water was used as a solvent.
(§1) One individual Arabidopsis thaliana (Col-0) was seeded in a plastic pot having a diameter of 60 mm and a height of 55 mm. Plastic deep dishes each having a diameter of 160 mm and a height of 28 mm were prepared, and six pots were respectively placed therein. As soil, 45 mL of vermiculite, 22.5 mL of granular soil (Kumiai horticultural soil), and 22.5 mL of vermiculite were placed in the pot in this order.
They were located in a growth chamber set at room temperature of 22° C., and the light period was 16 hours and the dark period was 8 hours. The light conditions were set such that the light intensity was 5000 lx in the central part under irradiation with the fluorescent lamp. Water supply was conducted from the bottom, and the water level was set at about 5 mm. EGT in an amount of 50 mL was added on the 22nd day after seeding, and drying stress was applied by stopping water supply for 18 days from 2 days after the addition of EGT.
The number of surviving plants was counted 18 days after the stoppage of water, and the plant mortality rate was evaluated as an index of physiological disorder. The mortality rate and the environmental stress suppressing rate were calculated according to the following formulas.

[3] = system: Arabidopsis thaliana (Col-0); test: Evaluation Example 5: tolerance to excessive nutrient stress, leaf wilting; details: for leaf wilting due to excessive nutrient stress, result in words: 0.5 mM; for Leaf wilting rate: test compound 0.5 mM (50 mL), excessive nutrient stress Yes (liquid fertilizer at 5-fold dilution), one day after stress; for Environmental stress suppressing rate: test compound 0.5 mM, excessive nutrient stress Yes
Description: (§2) EGT and GB were commercially available products, and pure water was used as a solvent.
as §1, with “four” for “six”
They were located in a growth chamber set at room temperature of 22° C., and the light period was 16 hours and the dark period was 8 hours. The light conditions were set such that the light intensity was 5000 lx in the central part under irradiation with the fluorescent lamp. Water supply was conducted from the bottom, and the water level was set at about 5 mm. On the 61st day after seeding, 50 mL of EGT or 50 mL of GB was added, and one day after that, a liquid fertilizer (HYPONeX, manufactured by Hyponex Japan Corp., Ltd.) was applied at a 5-fold dilution to give excessive nutrient stress.
The number of wilted leaves was evaluated one day after the excessive nutrient stress was applied. The leaf wilting rate and the environmental stress suppressing rate were calculated according to the following formulas.

turf (Manila grass) = test: Evaluation Example 8: tolerance to drying stress, leaf mortality; details: for Leaf mortality rate: test compound 0.1 mM (12.5 mL), water supply stopped 7 days twice; for Leaf mortality rate / Environmental stress suppressing rate: drying stress Yes; for Environmental stress suppressing rate: test compound 0.1 mM
Description: as §2
In a plastic pot having a diameter of 135 mm and a height of 110 mm, 1 L of a raising seedling culture soil (manufactured by Kanetaki Co., Ltd.) was placed, and 100 mm square of turf (Manila grass) was planted per pot.
They were managed in a greenhouse set at room temperature of 25° C. 12.5 mL of EGT or 12.5 mL of GB was added about one month after planting, and water supply was stopped for 7 days thereafter. After cultivation under water supply for 7 days, drying stress was applied by stopping water supply for 7 days again.
The dead leaves of turf to which the drying stress was applied were counted, and the leaf mortality rate was evaluated as an index of physiological disorder. The leaf mortality rate and the environmental stress suppressing rate were calculated according to the following formulas.

rapeseed = test: Evaluation Example 9: tolerance to excessive water stress, plant mortality; details: for Environmental stress suppressing rate: excessive water stress Yes
Description: EGT (Example 11, Comparative Example 31) or GB (Comparative Examples 30 and 32) was prepared so as to have a concentration shown in Table 9 below. EGT and GB were commercially available products, and pure water was used as a solvent.
5 mL of pure water was added to 9-cm petri dishes on which filter paper was placed, and 12 rapeseed seeds were seeded per petri dish. They were located in a growth chamber set at room temperature of 22° C., and the light period was 16 hours and the dark period was 8 hours. The light conditions were set such that the light intensity was 5000 lx in the central part under irradiation with the fluorescent lamp.
On the sixth day after seeding, pure water in the petri dish was removed, 5 mL of EGT or 5 mL of GB was added to the petri dish, and one day after that, 50 mL of pure water was added to the petri dish to apply excessive water stress.
5 The surviving plants were counted 19 days after the excessive water stress was applied, and the mortality rate of the plants was evaluated as an index of physiological disorder. The mortality rate and the environmental stress suppressing rate were calculated according to the following formulas.

[4] = test compound 0.1 mM (5 mL), freezing stress Yes (−20° C. for 20 minutes), 3 days after stress
[5] = test compound 0.1 mM, freezing stress No
[6] = test compound 0.1 mM (5 mL), excessive water stress Yes (50 mL pure water per petri dish), 19 days after stress
[7] = test compound 0.1 mM, excessive water stress No

| SMILES | Mortality rate [1, 4] | Mortality rate [1, 5] | Environmental stress suppressing rate ([1]; test compound 0.1 mM) | survival under drying stress, result in words ([2]; EGT 1 mM, drying stress) | Mortality rate ([2]; test compound 1 mM (50 mL), drying stress Yes, water supply stopped 18 days) | Environmental stress suppressing rate ([2]; test compound 1 mM, drying stress Yes) | leaf wilting due to excessive nutrient stress, result in words [3] | Leaf wilting rate [3] | Environmental stress suppressing rate [3] | Leaf mortality rate (turf (Manila grass)) | Environmental stress suppressing rate (turf (Manila grass)) | Mortality rate (rapeseed; [6]) | Mortality rate (rapeseed; [7]) | Environmental stress suppressing rate (rapeseed; test compound 0.1 mM) | mortality rate due to freezing stress, result in words ([1]; 0.1 mM, freezing stress) | mortality rate due to drying stress, result in words (turf (Manila grass); 0.1 mM, drying stress) | mortality rate due to excessive water stress, result in words (rapeseed; 0.1 mM, excessive water stress) |
| --- | --- | --- | --- | --- | --- | --- | --- | --- | --- | --- | --- | --- | --- | --- | --- | --- | --- |
| C[N+](C)(C)[C@@H](Cc1c[nH]c(=S)[nH]1)C(=O)[O-] [EGT, L-(+)-ergothioneine] | 29% | 0% | 54% | all Arabidopsis thaliana plants survived | 0% | 100% | suppressed | 24% | 76% | 35% | 65% | 25% | 0% | 58% |  |  |  |
| C[N+](C)(C)CC(=O)[O-] [GB, glycine betaine, reference compound] | 63% | 0% | 0% |  |  |  | hardly suppressed | 89% | 11% | 100% | 0% | 60% | 0% | 0% | not suppressed | not suppressed | not suppressed |
